In patent publication US10633419B2, “Immunomodulators” (BRISTOL-MYERS SQUIBB COMPANY, priority 2014, dated 2020) one finds IC50 data, which are given here for 13 molecules.

The structures appear in SMILES notation. Positions of bridges follow the written chain, without caps; N, C: chain ends. Non-standard residues stand in square brackets, D forms with d. Residues, ends and D or L forms follow the SMILES beside them. *: point of attachment. Ala(1-CH2COOH-inden-3-yl) = N[C@@H](CC1=CC(CC(=O)O)c2ccccc21)C(=O)O; Trp(1-CH2COOH) = N[C@@H](Cc1cn(CC(=O)O)c2ccccc12)C(=O)O; X3 = NC(=O)[C@H](CC(=O)O)NC(=O)CCC(=O)NCCCOCCOCCOCCCN*; X14 = O=C(O)CCCCCCCCCCNC(=O)CCC(=O)NCCCOCCOCCOCCCN*; Hyp = O=C(O)[C@@H]1C[C@@H](O)CN1; NMeNle = CCCC[C@H](NC)C(=O)O; NMeA = CN[C@@H](C)C(=O)O; Aun = NCCCCCCCCCCC(=O)O; Dab = NCC[C@H](N)C(=O)O

T1 sequence (Q9NZQ7 with tags, fused parts or gaps): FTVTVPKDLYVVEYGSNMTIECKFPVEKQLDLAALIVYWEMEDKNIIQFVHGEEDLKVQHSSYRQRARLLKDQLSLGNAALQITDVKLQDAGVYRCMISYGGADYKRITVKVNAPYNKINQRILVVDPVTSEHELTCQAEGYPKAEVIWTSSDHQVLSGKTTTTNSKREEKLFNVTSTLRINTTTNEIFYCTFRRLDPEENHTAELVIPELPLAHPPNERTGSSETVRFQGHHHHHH

One assay has as its target T1, PD-L1 (Homo sapiens, UniProt Q9NZQ7).
T1 construct: hPDL1(19-239)-TVMV-His; made in house; host or cells: HEK293T
The assay can be described thus: PD-1/PD-L1 Homogenous Time-Resolved Fluorescence (HTRF) binding assay (PD-1-Ig/PD-L1-His). Conditions: inhibition of PD-1-Ig binding to PD-L1-TVMV-His; value given as number; read-out: HTRF IC50. Summed up: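 Inhibitors pre-incubated 15 min with PD-L1-His (10 nM final), then PD-1-Ig (20 nM final) added for 15 min in dPBS/0.1% BSA/0.05% Tween-20. Eu-cryptate anti-Ig (1 nM) and APC anti-His (20 nM) added, 30 min equilibration, 665/620 nm HTRF ratio read.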
For orientation: TR-FRET usually uses a lanthanide donor and a delayed reading to cut background.
A word on the IC50: it is the concentration at which inhibition is half-maximal. With `CCCC[C@H]1C(=O)N(C)[C@@H](CCCC)C(=O)N[C@@H](CCCNC(=N)N)C(=O)N[C@H](C(=O)NCC(=O)NCCCCCCCCCCC(=O)NCCCCCCCCCCC(=O)O)CSCC(=O)N[C@@H](Cc2ccc(O)cc2)C(=O)N(C)[C@@H](C)C(=O)N[C@@H](CC(N)=O)C(=O)N2CCC[C@H]2C(=O)N[C@@H](Cc2cnc[nH]2)C(=O)N[C@@H](CC(C)C)C(=O)N2C[C@H](O)C[C@H]2C(=O)N[C@@H](Cc2c[nH]c3ccccc23)C(=O)N[C@@H](CO)C(=O)N[C@@H](Cc2c[nH]c3ccccc23)C(=O)N1C` [Example 11063] ({CH2CO}-Y[NMeA]NPHL[Hyp]WSW[NMeNle][NMeNle]RCG[Aun][Aun]-OH; thioether N-14), the IC50 is 9.2 nM. Same read-out and setting: to `CCCC[C@H]1C(=O)N(C)[C@@H](CCCC)C(=O)N[C@@H](CC(C)C)C(=O)N[C@H](C(=O)NCCCOCCOCCOCCCNC(=O)CCC(=O)NCCCCCCCCCCC(=O)O)CSCC(=O)N[C@@H](Cc2ccc(O)cc2)C(=O)N(C)[C@@H](C)C(=O)N[C@@H](CC(N)=O)C(=O)N2CCC[C@H]2C(=O)N[C@@H](Cc2cnc[nH]2)C(=O)N[C@@H](CCC(=O)O)C(=O)N2C[C@H](O)C[C@H]2C(=O)N[C@@H](Cc2c[nH]c3ccccc23)C(=O)N[C@@H](CCN)C(=O)N[C@@H](Cc2cn(CC(=O)O)c3ccccc23)C(=O)N1C` [Example 11075] ({CH2CO}-Y[NMeA]NPHE[Hyp]W[Dab][Trp(1-CH2COOH)][NMeNle][NMeNle]LC-X14; thioether N-14) belongs 7.1 nM.

The assay is the same for the next values; noted with them: inhibition of PD-1-Ig binding to PD-L1-TVMV-His; value given as range class; read-out: HTRF IC50.
Turning to `CCCC[C@H]1C(=O)N(C)[C@@H](CCCC)C(=O)N[C@@H](CCCNC(=N)N)C(=O)N[C@H](C(=O)NCCCCCCCCCCC(N)=O)CSCC(=O)N[C@@H](Cc2ccc(O)cc2)C(=O)N(C)[C@@H](C)C(=O)N[C@@H](CC(=O)O)C(=O)N2CCC[C@H]2C(=O)N[C@@H](Cc2cnc[nH]2)C(=O)N[C@@H](CC(C)C)C(=O)N2C[C@H](O)C[C@H]2C(=O)N[C@@H](Cc2c[nH]c3ccccc23)C(=O)N[C@@H](CO)C(=O)N[C@@H](Cc2c[nH]c3ccccc23)C(=O)N1C` [Example 11064] ({CH2CO}-Y[NMeA]DPHL[Hyp]WSW[NMeNle][NMeNle]RC[Aun]-NH2; thioether N-14), the IC50 is 0.3 to 9.9 nM.

Regarding `CCCC[C@H]1C(=O)N(C)[C@@H](CCCC)C(=O)N[C@@H](CC(C)C)C(=O)N[C@H](C(=O)NCC(=O)NCCCOCCOCCOCCCNC(=O)CCC(=O)N[C@@H](CC(=O)O)C(N)=O)CSCC(=O)N[C@@H](Cc2ccc(O)cc2)C(=O)N(C)[C@@H](C)C(=O)N[C@@H](CC(N)=O)C(=O)N2CCC[C@H]2C(=O)N[C@@H](Cc2cnc[nH]2)C(=O)N[C@@H](CCC(=O)O)C(=O)N2C[C@H](O)C[C@H]2C(=O)N[C@@H](Cc2c[nH]c3ccccc23)C(=O)N[C@@H](CCN)C(=O)N[C@@H](Cc2c[nH]c3ccccc23)C(=O)N1C` [Example 11065] ({CH2CO}-Y[NMeA]NPHE[Hyp]W[Dab]W[NMeNle][NMeNle]LCG-X3; thioether N-14), the IC50 lay in the range of 10 to 99 nM. On to `CCCC[C@H]1C(=O)N(C)[C@@H](CCCC)C(=O)N[C@@H](CC(C)C)C(=O)N[C@H](C(=O)NCCCCCCCCCCC(=O)N[C@@H](CC(=O)O)C(N)=O)CSCC(=O)N[C@@H](Cc2ccc(O)cc2)C(=O)N(C)[C@@H](C)C(=O)N[C@@H](CC(N)=O)C(=O)N2CCC[C@H]2C(=O)N[C@@H](Cc2cnc[nH]2)C(=O)N[C@@H](CCC(=O)O)C(=O)N2C[C@H](O)C[C@H]2C(=O)N[C@@H](Cc2c[nH]c3ccccc23)C(=O)N[C@@H](CCN)C(=O)N[C@@H](Cc2cn(CC(=O)O)c3ccccc23)C(=O)N1C` [Example 11066] ({CH2CO}-Y[NMeA]NPHE[Hyp]W[Dab][Trp(1-CH2COOH)][NMeNle][NMeNle]LC[Aun]D-NH2; thioether N-14), for which the IC50 lay within 0.3 to 9.9 nM. Still for that read-out and setting: the result for `CCCC[C@H]1C(=O)N(C)[C@@H](CCCC)C(=O)N[C@@H](CC(C)C)C(=O)N[C@H](C(=O)NCCCOCCOCCOCCCNC(=O)CCC(=O)N[C@@H](CC(=O)O)C(N)=O)CSCC(=O)N[C@@H](Cc2ccc(O)cc2)C(=O)N(C)[C@@H](C)C(=O)N[C@@H](CC(N)=O)C(=O)N2CCC[C@H]2C(=O)N[C@@H](Cc2cnc[nH]2)C(=O)N[C@@H](CCC(=O)O)C(=O)N2C[C@H](O)C[C@H]2C(=O)N[C@@H](Cc2c[nH]c3ccccc23)C(=O)N[C@@H](CCN)C(=O)N[C@@H](Cc2cn(CC(=O)O)c3ccccc23)C(=O)N1C` [Example 11067] ({CH2CO}-Y[NMeA]NPHE[Hyp]W[Dab][Trp(1-CH2COOH)][NMeNle][NMeNle]LC-X3; thioether N-14) reads 10 to 99 nM; that for `CCCC[C@H]1C(=O)N(C)[C@@H](CCCC)C(=O)N[C@@H](CCCNC(=N)N)C(=O)N[C@H](C(=O)NCC(=O)NCCCOCCOCCOCCCNC(=O)CCC(=O)NCCCCCCCCCCC(=O)O)CSCC(=O)N[C@@H](Cc2ccc(O)cc2)C(=O)N(C)[C@@H](C)C(=O)N[C@@H](CC(=O)O)C(=O)N2CCC[C@H]2C(=O)N[C@@H](Cc2cnc[nH]2)C(=O)N[C@@H](CC(C)C)C(=O)N2C[C@H](O)C[C@H]2C(=O)N[C@@H](Cc2c[nH]c3ccccc23)C(=O)N[C@@H](CO)C(=O)N[C@@H](Cc2c[nH]c3ccccc23)C(=O)N1C` [Example 11068] ({CH2CO}-Y[NMeA]DPHL[Hyp]WSW[NMeNle][NMeNle]RCG-X14; thioether N-14), 0.3 to 9.9 nM; that for `CCCC[C@H]1C(=O)N(C)[C@@H](CCCC)C(=O)N[C@@H](CCCNC(=N)N)C(=O)N[C@H](C(=O)NCC(=O)NCC(=O)N[C@@H](CC(=O)O)C(=O)NCCCCCCCCCCC(=O)O)CSCC(=O)N[C@@H](Cc2ccc(O)cc2)C(=O)N(C)[C@@H](C)C(=O)N[C@@H](CC(=O)O)C(=O)N2CCC[C@H]2C(=O)N[C@@H](Cc2cnc[nH]2)C(=O)N[C@@H](CC(C)C)C(=O)N2C[C@H](O)C[C@H]2C(=O)N[C@@H](Cc2c[nH]c3ccccc23)C(=O)N[C@@H](CO)C(=O)N[C@@H](Cc2c[nH]c3ccccc23)C(=O)N1C` [Example 11069] ({CH2CO}-Y[NMeA]DPHL[Hyp]WSW[NMeNle][NMeNle]RCGGD[Aun]-OH; thioether N-14), 10 to 99 nM. As to `CCCC[C@H]1C(=O)N(C)[C@@H](CCCC)C(=O)N[C@@H](CCCNC(=N)N)C(=O)N[C@H](C(=O)NCC(=O)NCC(=O)NCC(=O)NCCCCCCCCCCC(=O)O)CSCC(=O)N[C@@H](Cc2ccc(O)cc2)C(=O)N(C)[C@@H](C)C(=O)N[C@@H](CC(=O)O)C(=O)N2CCC[C@H]2C(=O)N[C@@H](Cc2cnc[nH]2)C(=O)N[C@@H](CC(C)C)C(=O)N2C[C@H](O)C[C@H]2C(=O)N[C@@H](Cc2c[nH]c3ccccc23)C(=O)N[C@@H](CO)C(=O)N[C@@H](Cc2c[nH]c3ccccc23)C(=O)N1C` [Example 11070] ({CH2CO}-Y[NMeA]DPHL[Hyp]WSW[NMeNle][NMeNle]RCGGG[Aun]-OH; thioether N-14), the IC50 is 0.3 to 9.9 nM. The same measure, in the same setting: to `CCCC[C@H]1C(=O)N(C)[C@@H](CCCC)C(=O)N[C@@H](CCCNC(=N)N)C(=O)N[C@H](C(=O)NCC(=O)NCC(=O)NCCCCCCCCCCC(=O)O)CSCC(=O)N[C@@H](Cc2ccc(O)cc2)C(=O)N(C)[C@@H](C)C(=O)N[C@@H](CC(=O)O)C(=O)N2CCC[C@H]2C(=O)N[C@@H](Cc2cnc[nH]2)C(=O)N[C@@H](CC(C)C)C(=O)N2C[C@H](O)C[C@H]2C(=O)N[C@@H](Cc2c[nH]c3ccccc23)C(=O)N[C@@H](CO)C(=O)N[C@@H](Cc2c[nH]c3ccccc23)C(=O)N1C` [Example 11071] ({CH2CO}-Y[NMeA]DPHL[Hyp]WSW[NMeNle][NMeNle]RCGG[Aun]-OH; thioether N-14) belongs 0.3 to 9.9 nM. In the case of `CCCC[C@H]1C(=O)N(C)[C@@H](CCCC)C(=O)N[C@@H](CC(C)C)C(=O)N[C@H](C(=O)NCCCOCCOCCOCCCNC(=O)CCC(=O)NCCCCCCCCCCC(=O)O)CSCC(=O)N[C@@H](Cc2ccc(O)cc2)C(=O)N(C)[C@@H](C)C(=O)N[C@@H](CC(N)=O)C(=O)N2CCC[C@H]2C(=O)N[C@@H](Cc2cnc[nH]2)C(=O)N[C@@H](CCC(=O)O)C(=O)N2C[C@H](O)C[C@H]2C(=O)N[C@@H](Cc2c[nH]c3ccccc23)C(=O)N[C@@H](CO)C(=O)N[C@@H](Cc2c[nH]c3ccccc23)C(=O)N1C` [Example 11073] ({CH2CO}-Y[NMeA]NPHE[Hyp]WSW[NMeNle][NMeNle]LC-X14; thioether N-14), the IC50 was in the range of 10 to 99 nM. Regarding `CCCC[C@H]1C(=O)N(C)[C@@H](CCCC)C(=O)N[C@@H](CC(C)C)C(=O)N[C@H](C(=O)NCCCCCCCCCCC(=O)O)CSCC(=O)N[C@@H](Cc2ccc(O)cc2)C(=O)N(C)[C@@H](C)C(=O)N[C@@H](CC(N)=O)C(=O)N2CCC[C@H]2C(=O)N[C@@H](Cc2cnc[nH]2)C(=O)N[C@@H](CCC(=O)O)C(=O)N2C[C@H](O)C[C@H]2C(=O)N[C@@H](Cc2c[nH]c3ccccc23)C(=O)N[C@@H](CCN)C(=O)N[C@@H](CC2=CC(CC(=O)O)c3ccccc32)C(=O)N1C` (stereo partly shown) [Example 11076] ({CH2CO}-Y[NMeA]NPHE[Hyp]W[Dab][Ala(1-CH2COOH-inden-3-yl)][NMeNle][NMeNle]LC[Aun]-OH; thioether N-14), the IC50 lay within 10 to 99 nM.

Take `CCCC[C@H]1C(=O)N(C)[C@@H](CCCC)C(=O)N[C@@H](CC(C)C)C(=O)N[C@H](C(=O)NCC(=O)NCCCCCCCCCCC(=O)O)CSCC(=O)N[C@@H](Cc2ccc(O)cc2)C(=O)N(C)[C@@H](C)C(=O)N[C@@H](CC(N)=O)C(=O)N2CCC[C@H]2C(=O)N[C@@H](Cc2cnc[nH]2)C(=O)N[C@@H](CCC(=O)O)C(=O)N2C[C@H](O)C[C@H]2C(=O)N[C@@H](Cc2c[nH]c3ccccc23)C(=O)N[C@@H](CCN)C(=O)N[C@@H](CC2=CC(CC(=O)O)c3ccccc32)C(=O)N1C` (stereo partly shown) [Example 11077] ({CH2CO}-Y[NMeA]NPHE[Hyp]W[Dab][Ala(1-CH2COOH-inden-3-yl)][NMeNle][NMeNle]LCG[Aun]-OH; thioether N-14): the IC50 is 0.3 to 9.9 nM.
